This passage reports IC50 results from patent publication US8455497B2, “Inhibitors of aspartyl protease” (Vertex Pharmaceuticals Incorporated, priority 1999, dated 2013).

Usually IC50 stands for the concentration that inhibits the measured activity by half.

One experiment concerns HIV-1 (strain IIIB). As to the kind of experiment: Antiviral activity assay in MT4 cells (propidium iodide based). The experiment is classed as cell-based. Particulars: Human immunodeficiency virus 1, IIIB; wild type HIV-1 virus, MT4 cells; read-out: Wildtype virus - IC50. Put shortly:
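Compound serial dilutions in RPMI/FCS received MT4 cells pre-infected 1 hr at 37°C with HIV-1 IIIB at 100×TCID50. After 5 days' culture and Nonidet-40 lysis, well DNA content was measured by propidium iodide dye; mock-infected cells served as control.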

Experiment [1] relates to D545701-14 multi protease inhibitor resistant virus. Description: Anti-viral activity against resistant virus D545701-14 in MT4 cells. The experiment is classed as cell-based, HIV-1.
Experiment [2] relates to EP13 multi protease inhibitor resistant virus. As to the kind of experiment: Anti-viral activity against resistant virus EP13 in MT4 cells. It counts as cell-based, HIV-1. In outline:
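MT4 cells infected for 1 h at 37 °C, MOI 100×TCID50, then diluted 6-fold onto pre-diluted compound and cultured 5 days (5% CO2). Viable-cell DNA content estimated by propidium iodide. EP13 carries protease mutations M46I, L63P, A71V, V82F/L, I84V, no RT mutations.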

Where [3] appears, read: Human immunodeficiency virus 1, MT4, read-out: D545701-14 mutant - IC50.
Where [4] appears, read: Human immunodeficiency virus 1, MT4, read-out: EP13 mutant IC50.
Where [5] appears, read: Human immunodeficiency virus 1, MT4, read-out: D545701-14 mutant - IC50, D545701-14 multi protease inhibitor resistant virus, MT4 cells.
[6] abbreviates: Human immunodeficiency virus 1, MT4, read-out: EP13 mutant IC50, EP13 multi protease inhibitor resistant virus, MT4 cells.

The structures appear in SMILES notation. Where two headings read alike, the source gives them in different places.

`CC(C)CN(C[C@@H](O)[C@H](Cc1ccc(OCCNS(C)(=O)=O)cc1)NC(=O)O[C@H]1CO[C@H]2OCC[C@H]21)S(=O)(=O)c1ccc2c(c1)OCO2` [Compound 357, (3R,3aS,6aR)hexahydrofuro[2,3-b]furan-3-yl (1S,2R)-3-[(1,3-benzodioxol-5-ylsulfonyl)(isobutyl)amino]-2-hydroxy-1-[4-(2-[(methylsulfonyl)amino]ethoxy)benzyl]propylcarbamate]: the figures for the IC50 (in the experiment on HIV-1 (strain IIIB); in experiment [1] (setting [3]); in experiment [2] (setting [4])) were 10 to 100 nM, 10 to 100 nM and 1 to 10 nM, respectively.

With `CC(C)CN(C[C@@H](O)[C@H](Cc1ccc(OCCCCN/C(=N/C#N)Oc2ccccc2)cc1)NC(=O)O[C@H]1CO[C@H]2OCC[C@H]21)S(=O)(=O)c1ccc2c(c1)OCO2` [Compound 263, (3R,3aS,6aR)-hexahydrofuro[2,3-b]furan-3-yl (1S,2R)-3-[(1,3-benzodioxol-5-ylsulfonyl)(isobutyl)amino]-1-[4-(4{[(E and/or Z)-(cyanoimino)(phenoxy)methyl]amino}butoxy)benzyl]-2-hydroxypropylcarbamate], the IC50 (in the experiment with HIV-1 (strain IIIB); in experiment [1] (setting [5]); in experiment [2] (setting [6])) was 1 to 10 nM throughout.

On to `CC(C)CN(C[C@@H](O)[C@H](Cc1ccc(OCCN/C(=N/C#N)Oc2ccccc2)cc1)NC(=O)O[C@H]1CO[C@H]2OCC[C@H]21)S(=O)(=O)c1ccc2c(c1)OCO2` [Compound 262, (3R,3aS,6aR)-hexahydrofuro[2,3-b]furan-3-yl (1S,2R)-3-[(1,3-benzodioxol-5-ylsulfonyl)(isobutyl)amino]-1-[4-(2-{[(E and/or Z)-(cyanoimino)(phenoxy)methyl]amino}ethoxy)benzyl]-2-hydroxypropylcarbamate], for which the IC50 (in the experiment on HIV-1 (strain IIIB); in experiment [1] (setting [3]); in experiment [2] (setting [4])) was 1 to 10 nM throughout.

With `CC(=O)Oc1ccc(S(=O)(=O)N(CC(C)C)C[C@@H](O)[C@H](Cc2ccc(OCc3csc(C)n3)cc2)NC(=O)O[C@H]2CO[C@H]3OCC[C@H]32)cc1C` [Compound 347, 4-{[((2R,3S)-3-({[(3R,3aS,6aR)-hexahydrofuro[2,3-b]furan-3-yloxy]carbonyl}amino)-2-hydroxy-4-{4-[(2-methyl-1,3-thiazol-4-yl)methoxy]phenyl}butyl)(isobutyl)amino]sulfonyl}-2-methylphenyl acetate], the IC50 (in the experiment with HIV-1 (strain IIIB); in experiment [1] (setting [5]); in experiment [2] (setting [6])) was 1 to 10 nM each time.

For `CC(C)CN(C[C@@H](O)[C@H](Cc1ccc(OCCCN2CCSC2)cc1)NC(=O)O[C@H]1CO[C@H]2OCC[C@H]21)S(=O)(=O)c1ccc2c(c1)OCO2` [Compound 277, (3R,3aS,6aR)-hexahydrofuro[2,3-b]furan-3-yl (1S,2R)-3-[(1,3-benzodioxol-5-ylsulfonyl)(isobutyl)amino]-2-hydroxy-1-{4-[3-(1,3-thiazolidin-3-yl)propoxy]benzyl}propylcarbamate], the IC50 (in the experiment on HIV-1 (strain IIIB); in experiment [1] (setting [5]); in experiment [2] (setting [6])) was 1 to 10 nM throughout.

In the case of `CC(C)CN(C[C@@H](O)[C@H](Cc1ccc(OCCCCO)cc1)NC(=O)O[C@H]1CO[C@H]2OCC[C@H]21)S(=O)(=O)c1ccc2c(c1)OCO2` [Compound 317, (3R,3aS,6aR)-Hexahydrofuro[2,3-b]furan-3-yl (1S,2R)-3-[(1,3-benzodioxol-5-ylsulfonyl)(isobutyl)amino]-2-hydroxy-1-[4-(4-hydroxybutoxy)benzyl]propylcarbamate], the IC50 (in the experiment with HIV-1 (strain IIIB); in experiment [1] (setting [5]); in experiment [2] (setting [6])) was 1 to 10 nM throughout.

Consider `CNC(=O)COc1ccc(C[C@H](NC(=O)O[C@H]2CO[C@H]3OCC[C@H]32)[C@H](O)CN(CC(C)C)S(=O)(=O)c2ccc3c(c2)OCO3)cc1` [Compound 315, (3R,3aS,6aR)-Hexahydrofuro[2,3-b]furan-3-yl (1S,2R)-3[(1,3-benzodioxol-5-ylsulfonyl)(isobutyl)amino]-2-hydroxy-1-{4-[2-(methylamino)-2-oxoethoxy]benzyl}propylcarbamate], for which the IC50 lay in the range of 10 to 100 nM in the experiment with HIV-1 (strain IIIB), 1 to 10 nM in experiment [1] (setting [5]) and 1 to 10 nM in experiment [2] (setting [6]).

Turning to `CC(C)CN(C[C@@H](O)[C@H](Cc1ccc(OCCCC(F)(F)F)cc1)NC(=O)O[C@H]1CO[C@H]2OCC[C@H]21)S(=O)(=O)c1ccc2c(c1)OCCO2` [Compound 204, (3R,3aS,6aR)-hexahydrofuro[2,3-b]furan-3-yl (1S,2R)-3-[(2,3-dihydro-1,4-benzodioxin-6-ylsulfonyl)(isobutyl)amino]-2-hydroxy-1-[4-(4,4,4-trifluorobutoxy)benzyl]propylcarbamate], the IC50 (with HIV-1 (strain IIIB); in experiment [1] (setting [5]); in experiment [2] (setting [6])) was 1 to 10 nM throughout.

On to `CNC(=O)NCCOc1ccc(C[C@H](NC(=O)O[C@H]2CO[C@H]3OCC[C@H]32)[C@H](O)CN(CC(C)C)S(=O)(=O)c2ccc3c(c2)OCO3)cc1` [Compound 358, (3R,3aS,6aR)hexahydrofuro[2,3-b]furan-3-yl (1S,2R)-3-[(1,3-benzodioxol-5-ylsulfonyl)(isobutyl)amino]-2-hydroxy-1-[4-(2-[([methylamino]carbonyl)amino]ethoxy)benzyl]propylcarbamate], for which the IC50 (in the experiment on HIV-1 (strain IIIB); in experiment [1] (setting [3]); in experiment [2] (setting [4])) was 10 to 100 nM in each case.

In the case of `CC(C)CN(C[C@@H](O)[C@H](Cc1ccc(OCc2cccc(C#N)c2)cc1)NC(=O)O[C@H]1CO[C@H]2OCC[C@H]21)S(=O)(=O)c1ccc2c(c1)OC(F)(F)O2` [Compound 342, (3R,3aS,6aR)-hexahydrofuro[2,3-b]furan-3-yl (1S,2R)-1-{4-[(3-cyanobenzyl)oxy]benzyl}-3-[[(2,2-difluoro-1,3-benzodioxol-5-yl)sulfonyl](isobutyl)amino]-2-hydroxypropylcarbamate], the IC50 (in the experiment with HIV-1 (strain IIIB); in experiment [1] (setting [5]); in experiment [2] (setting [6])) was 10 to 100 nM throughout.

In the case of `CC(=O)NCCOc1ccc(C[C@H](NC(=O)O[C@H]2CO[C@H]3OCC[C@H]32)[C@H](O)CN(CC(C)C)S(=O)(=O)c2ccc3c(c2)OCO3)cc1` [Compound 355, (3R,3aS,6aR)hexahydrofuro[2,3-b]furan-3-yl (1S,2R)-3-[(1,3-benzodioxol-5-ylsulfonyl)(isobutyl)amino]-2-hydroxy-1-[4-(2-[acetylamino]ethoxy)benzyl]propylcarbamate], the concentration for half-maximal inhibition (IC50) (in the experiment with HIV-1 (strain IIIB); in experiment [1] (setting [5]); in experiment [2] (setting [6])) was 10 to 100 nM in each case.

For `CC(C)CN(C[C@@H](O)[C@H](Cc1ccc(OCCN(C)C)cc1)NC(=O)O[C@H]1CO[C@H]2OCC[C@H]21)S(=O)(=O)c1ccc2c(c1)OCO2` [Compound 359, (3R,3aS,6aR)hexahydrofuro[2,3-b]furan-3-yl (1S,2R)-3-[(1,3-benzodioxol-5-ylsulfonyl)(isobutyl)amino]-2-hydroxy-1-[4-(2-[dimethylamino]ethoxy)benzyl]propylcarbamate], the IC50 (in the experiment on HIV-1 (strain IIIB); in experiment [1] (setting [5]); in experiment [2] (setting [6])) was 10 to 100 nM in each case.

For `CC(C)CN(C[C@@H](O)[C@H](Cc1ccc(OCCCOC(N)=O)cc1)NC(=O)O[C@H]1CO[C@H]2OCC[C@H]21)S(=O)(=O)c1ccc2c(c1)OCO2` [Compound 321, (3R,3aS,6aR)-Hexahydrofuro[2,3-b]furan-3-yl (1S,2R)-1-(4-{3-[(aminocarbonyl)oxy]propoxy}benzyl)-3-[(1,3-benzodioxol-5-ylsulfonyl)(isobutyl)amino]-2-hydroxypropylcarbamate], the IC50 (in the experiment with HIV-1 (strain IIIB); in experiment [1] (setting [5]); in experiment [2] (setting [6])) was 1 to 10 nM each time.

In the case of `CC(C)CN(CC(O)[C@H](Cc1ccc(OCc2ccccn2)cc1)NC(=O)O[C@H]1CO[C@H]2OCC[C@H]21)S(=O)(=O)c1ccc2c(c1)OCCO2` (stereo in doubt) [Compound 337, (3R,3aS,6aR)-hexahydrofuro[2,3-b]furan-3-yl (1S,2S)-3-[(2,3-dihydro-1,4-benzodioxin-6-ylsulfonyl)(isobutyl)amino]-2-hydroxy-1-[4-(2-pyridinylmethoxy)benzyl]propylcarbamate], the IC50 (in the experiment on HIV-1 (strain IIIB); in experiment [1] (setting [5]); in experiment [2] (setting [6])) was 1 to 10 nM throughout.

With `CC(C)CN(C[C@@H](O)[C@H](Cc1ccc(OCCCNC(=O)c2ccoc2)cc1)NC(=O)O[C@H]1CO[C@H]2OCC[C@H]21)S(=O)(=O)c1ccc2c(c1)OCO2` [Compound 261, (3R,3aS,6aR)-hexahydrofuro[2,3-b]furan-3-yl (1S,2R)-3-[(1,3-benzodioxol-5-ylsulfonyl)(isobutyl)amino]-1-{4-[3-(3-furoylamino)propoxy]benzyl}-2-hydroxypropylcarbamate], the IC50 (with HIV-1 (strain IIIB); in experiment [1] (setting [5]); in experiment [2] (setting [6])) was 1 to 10 nM in each case.

Consider `CC(C)CN(C[C@@H](O)[C@H](Cc1ccc(OCCCN(C)C)cc1)NC(=O)O[C@H]1CO[C@H]2OCC[C@H]21)S(=O)(=O)c1ccc2c(c1)OCO2` [Compound 274, (3R,3aS,6aR)-hexahydrofuro[2,3-b]furan-3-yl (1S,2R)-3-[(1,3-benzodioxol-5-ylsulfonyl)(isobutyl)amino]-1-{4-[3-(dimethylamino)propoxy]benzyl}-2-hydroxypropylcarbamate], for which the IC50 in the experiment on HIV-1 (strain IIIB) was in the range of 10 to 100 nM; in experiment [1] (setting [5]), 10 to 100 nM; in experiment [2] (setting [6]), 1 to 10 nM.
